Assay results as given in ChEMBL document CHEMBL3351635, “Novel nitro(triazole/imidazole)-based heteroarylamides/sulfonamides as potential antitrypanosomal agents” (Eur J Med Chem, 2014).
pIC50, pKd: −log10 of the molar value.

Legend:
[1] = system: Trypanosoma brucei rhodesiense; assay: Antiparasitic activity against bloodstream forms of Trypanosoma brucei rhodesiense STIB 900 assessed as inhibition of growth after 72 hrs by resazurin assay; type: functional, organism-based; conditions: STIB 900, 72 h
[2] = system: Trypanosoma brucei brucei; assay: Trypanocidal activity against wild type bloodstream forms of Trypanosoma brucei brucei Lister 427 clone 221a assessed as inhibition of proliferation after 3 days by resazurin assay; type: functional, organism-based; conditions: 72 h
Trypanosoma cruzi [3] = assay: Ratio of benznidazol IC50 to compound IC50 for trypomastigote forms of Trypanosoma cruzi Tulahuen C2C4 infected in rat L6 cells assessed as inhibition of growth after 96 hrs by inverted microscopy; type: functional
Leishmania donovani = assay: Antiparasitic activity against axenic amastigote forms of Leishmania donovani MHOM/ET/67/L82 assessed as inhibition of growth after 72 hrs by resazurin assay; type: functional, organism-based; conditions: MHOM/ET/67/L82, 72 h
[4] = system: Trypanosoma brucei brucei; assay: Trypanocidal activity against bloodstream forms of Trypanosoma brucei brucei Lister 427 clone 221a overexpressing type I nitroreductase assessed as inhibition of proliferation after 3 days by resazurin assay in absence of tetracycline; type: functional, organism-based; conditions: 72 h
L6 = assay: Cytotoxicity against rat L6 cells after 72 hrs by alamar blue assay; type: cell-based; conditions: L6, 72 h
Trypanosoma cruzi [5] = assay: Antiparasitic activity against trypomastigote forms of Trypanosoma cruzi Tulahuen C2C4 infected in rat L6 cells assessed as inhibition of growth after 96 hrs by inverted microscopy; type: functional, organism-based; conditions: Tulahuen C2C4, L6, 96 h
[6] = Selectivity index, ratio of IC50 for rat L6 cells to IC50 for trypomastigote forms of Trypanosoma cruzi Tulahuen C2C4 infected in rat L6 cells; type: toxicity, cell-based; conditions: read-out: Ratio IC50
[7] = system: Trypanosoma brucei brucei; assay: Ratio of IC50 for bloodstream forms of Trypanosoma brucei brucei Lister 427 clone 221a overexpressing type I nitroreductase in absence of tetracycline to IC50 for bloodstream forms of Trypanosoma brucei brucei Lister 427 clone 221a overexpressing type I nitroreductase in presence of tetracycline; type: functional
[8] = system: Trypanosoma brucei brucei; assay: Trypanocidal activity against bloodstream forms of Trypanosoma brucei brucei Lister 427 clone 221a overexpressing type I nitroreductase assessed as inhibition of proliferation after 3 days by resazurin assay in presence of tetracycline; type: functional, organism-based; conditions: 72 h
[9] = Selectivity index, ratio of IC50 for rat L6 cells to IC50 for bloodstream forms of Trypanosoma brucei rhodesiense STIB 900; type: toxicity, cell-based; conditions: read-out: Ratio IC50
[10] = Selectivity index, ratio of IC50 for rat L6 cells to IC50 for axenic amastigote forms of Leishmania donovani MHOM/ET/67/L82; type: toxicity, cell-based; conditions: read-out: Ratio IC50
[11] = molecular target: Sterol 14-alpha demethylase (Trypanosoma cruzi (strain CL Brener), UniProt Q7Z1V1); assay: Binding affinity to Trypanosoma cruzi CYP51
Sequence of Sterol 14-alpha demethylase (Q7Z1V1 whole entry): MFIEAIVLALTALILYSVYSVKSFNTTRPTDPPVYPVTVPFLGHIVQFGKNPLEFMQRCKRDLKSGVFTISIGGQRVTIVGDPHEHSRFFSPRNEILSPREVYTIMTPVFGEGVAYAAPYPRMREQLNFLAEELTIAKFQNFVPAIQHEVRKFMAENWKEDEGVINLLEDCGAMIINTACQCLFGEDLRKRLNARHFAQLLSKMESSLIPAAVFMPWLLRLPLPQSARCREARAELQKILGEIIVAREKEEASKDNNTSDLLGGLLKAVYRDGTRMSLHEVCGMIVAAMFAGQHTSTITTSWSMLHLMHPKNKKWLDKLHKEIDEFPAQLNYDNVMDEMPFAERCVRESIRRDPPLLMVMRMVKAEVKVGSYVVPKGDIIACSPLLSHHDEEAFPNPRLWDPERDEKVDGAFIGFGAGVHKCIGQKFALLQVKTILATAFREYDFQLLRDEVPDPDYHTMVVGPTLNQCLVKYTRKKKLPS

[12] = Selectivity ratio of IC50 for trypomastigote forms of Trypanosoma cruzi Tulahuen C2C4 infected in rat L6 cells to IC50 for bloodstream forms of Trypanosoma brucei rhodesiense STIB 900; type: functional

SMILES	pIC50 [1]	pIC50 [2]	Ratio IC50 (Trypanosoma cruzi [3])	pIC50 (Leishmania donovani)	pIC50 [4]	pIC50 (L6)	pIC50 (Trypanosoma cruzi [5])	selectivity ratio [6]	Ratio IC50 [7]	pIC50 [8]	selectivity ratio [9]	selectivity ratio [10]	pKd [11]	Ratio IC50 [12]
O=C(NCCCCn1cnc([N+](=O)[O-])n1)c1sc2ccccc2c1Cl	6.01	6.36	12.09	4.94	6.32	< 3.58	6.73	> 1410	3	6.80	> 270	> 23		
O=[N+]([O-])c1ncn(CCCCNS(=O)(=O)c2ccc(Cl)s2)n1	6.28	4.64	4.42	4.70	4.67	3.89	6.34	278	39.2	6.26	247	6		
Cc1nc([N+](=O)[O-])cn1CCCNC(=O)c1nc2ccccc2s1	3.76		0.01			< 3.54	3.98	> 3			2			
O=C(NCCCCn1cnc([N+](=O)[O-])n1)c1ccsc1	6.09	5.52	1.3	4.56	5.60	< 3.47	5.76	> 194	8	6.51	> 418	> 12		
Cc1cc(C(=O)NCCCn2cnc([N+](=O)[O-])n2)c(C)o1	5.33		0.25	3.88		< 3.47	5.05	> 39			> 73	> 3		
Nc1nc(N)nc(Nc2ccc([As]3SCC(CO)S3)cc2)n1 (stereo unspecified) [MELARSOPROL]		8.22							1					
O=C(NCCCn1cnc([N+](=O)[O-])n1)c1cc2ccccc2s1	6.73	< 6.03	7.72	4.83	5.89	3.91	6.53	425	18.4	7.15	665	8		
O=[N+]([O-])c1ncn(CCCNS(=O)(=O)c2ccc(Cl)s2)n1			3.6				6.36	556	18.9		122	7	4.19	
O=C(NCCCCn1cnc([N+](=O)[O-])n1)c1nc2ccccc2s1	5.76	5.87	5.36	4.56	5.86	3.81	6.37	364	3.9	6.44	89	6		
CCCCCCCCCCCCCCCCOP(=O)([O-])OCC[N+](C)(C)C [MILTEFOSINE]				6.41										
O=[N+]([O-])c1ncn(CCCNS(=O)(=O)c2cc(Cl)sc2Cl)n1	5.80	5.53	3.7	4.75	5.37	3.92	6.26	216	19.3	6.66	75	7		
O=C(NCCCn1cnc([N+](=O)[O-])n1)c1ccnc(Cl)c1	5.65	< 5.10	0.17	4.08	5.16	< 3.49	4.87	> 24	1.2	5.25	> 143	> 4		6
O=[N+]([O-])c1ncn(CCCCNS(=O)(=O)c2cc(Cl)c(Cl)s2)n1	6.66	6.21	6.07	4.97	6.34	4.01	6.43	261	2.4	6.72	447	9		
O=[N+]([O-])c1nccn1CCCNS(=O)(=O)c1cc(Cl)c(Cl)s1	4.49		0.48	5.13		4.12	5.32	16			2	10		
O=[N+]([O-])c1ncn(CCCNS(=O)(=O)c2cc(Cl)c(Cl)s2)n1	6.30	4.81	14.31	4.88	4.77	4.00	6.80	639	32.6	6.28	200	8		
Cc1nc([N+](=O)[O-])cn1CCCNC(=O)c1sc2ccccc2c1Cl	4.40		0.05			3.72	4.49	6			5			
O=C(Cn1ccnc1[N+](=O)[O-])NCc1ccccc1 [BENZNIDAZOLE]							5.67		9.9					
Cc1csc(C(=O)NCCCn2cnc([N+](=O)[O-])n2)c1	6.01	5.01	0.8	4.34	5.20	3.76	5.59	68	19.2	6.48	176	4		
Cc1nc([N+](=O)[O-])cn1CCCNS(=O)(=O)c1ccc(Cl)s1	4.33		0.02			3.58	3.99	3			6			
CC1CS(=O)(=O)CCN1/N=C/c1ccc([N+](=O)[O-])o1 (stereo unspecified) [NIFURTIMOX]									13.2					
O=C(NCCCn1cnc([N+](=O)[O-])n1)c1ccsc1	6.04	4.57	0.57	4.15	4.67	< 3.45	5.40	> 89	73	6.54	> 389	> 5		
Cc1ccoc1C(=O)NCCCn1cnc([N+](=O)[O-])n1	4.79		0.07	3.86		< 3.45	4.52	> 12			> 22	> 3		
O=C(NCCCn1cnc([N+](=O)[O-])n1)c1ccc(C(F)(F)F)nc1			0.5			< 3.54	5.46	> 84			> 82			
O=[N+]([O-])c1nccn1CCCNS(=O)(=O)c1cc(Cl)sc1Cl	4.39		0.32	4.88		3.97	5.16	15			3	8		
